The test system of one data set is CHEM-5. Put plainly: In vitro cytotoxicity, MTT assay. The data set is classed as cell-based, human. As to conditions: CHEM-5, MTT assay, 72 h. As for the experimental part:
(§1) page 7: The gold content of the nanocomposites was determined by dissolving the nanocomposites in conc. HNO3 / conc. HCl solution mixture (9:1, v/v; 30 µL), followed by ICP-MS analysis. […] The nanocomposite (10 µL) was dissolved in acetonitrile (90 µL), and subjected to gentle shaking overnight. The solution mixture was then dried under vacuum, and re- dispersed in 0.1 vol% formic acid in water/acetonitrile (7/3, v/v; 1 mL) solution mixture. […] The mobile phase was 0.1 vol% formic acid in water/acetonitrile (7:3, v/v) solution mixture. […] The cells were then treated with a serial concentration of gold(III) complexes and incubated at 37 °C under a 5% CO2 atmosphere for 72 h. […] After incubation for 72 h, MTT in PBS solution (5 mg/mL, 10 μL) was added to each well. The plates were incubated at 37 °C under a 5% CO2 atmosphere for another 4 h, and the cells were lysed by the addition of SDS solution (10%, w/w) with 0.01 M HCl (100 μL). After incubation in dark at 37 °C overnight, the cell viability after treatment was determined by a microtitre plate reader monitoring at the absorbance at 590 nm, P.7 page 8: which reflected the amount of blue formazan formed. IC50 values were then determined by CompuSyn S6 from three independent measurements. Study on the release of hydrolyzed product from 1 and 2 in aqueous buffer solutions by ICP-MS. […] At a predetermined time, an aliquot of solution was removed and dissolved in HNO3/HCl solution mixture (9:1, v/v; volume of aliquot: volume of acid mixture = 1:3). The solution mixture was heated at 65 °C with shaking overnight, and the gold content was determined by ICP-MS from three independent aliquots. […] 37 °C for 24 h. […] Analysis of cell lysate of HCT116 cells treated with complexes 1 and 3 by UPLC- QTOF-MS. […] All the cells were harvested, washed with PBS solution for three times and dispersed in ice-cold water. The cell suspension was then added to ice-cold acetonitrile (1:3, v/v), vortexed for 5 min, and centrifuged at 10,000 rpm at 4 °C. The supernatant was collected, dried under vacuum and the solid was re-dissolved in acetonitrile (HPLC grade) for UPLC- QTOF-MS experiments. The mobile phase was a mixture of 0.1% formic acid in water (phase A) and 0.1% formic acid in acetonitrile (phase B). […] P.46

In another data set the test system is L02. The data set can be described thus: In vitro cytotoxicity, MTT assay. It is filed as cell-based, human. Particulars: 72 h. On the procedure:
as §1

The nature of data set [1]: Systemic toxicity in nude mice bearing HCT116 xenografts (body weight, H&E histopathology, blood biochemistry). The data set is classed as in vivo. As to conditions: HCT116 xenograft nude mice. On the procedure: The anti-tumor experiments using mice were approved by the animal ethics committees of Jinan University and The University of Hong Kong. […]
every 2 days for 24 days. The control group received equal volume of PBS only.
During the treatment period, the tumor volume and body weight of the nude mice were measured per two days. The tumor volume was calculated by the equation:
Volume (mm3) = l×w2/2, where l and w were the length and width of the tumor. At the end of the treatment, the nude mice were sacrificed and the tumor weight was […]
H&E staining and immunohistochemical (IHC) analysis of mice tissues. For […]
formaldehyde, embedded with paraffin and sectioned. Subsequently, the tissues were stained with hematoxylin and eosin for histological observation under an optical microscope (magnification: 10×). The expression of p53, Ki67, VEGFR2 and TUNEL was determined by IHC methods as reported previously. S7
Hematological analysis of nude mice bearing HCT116 xenograft. The blood samples of mice without bearing HCT116 xenograft and xenograft-bearing mice treated with 1, 3 and PBS control were collected. The plasma was obtained by centrifuging the blood sample with speed at 3000 rpm. The plasma was then subjected to hematological analysis to determine biochemical indexes of alanine aminotransferase (ALT), asparatate aminotransferase (AST), globulin (GLB), blood urea nitrogen (BUN), uric acid (UA), creatinine (CREA), lactate dehydrogenase (LDH) and creatine kinase (CK) in blood of the mice.
A2780cis xenograft nude mice model was constructed by injecting 2.5×10^6 cells to the right back flank of female BALB/c nude mice. When the tumor volume […]
animal study. The A2780cis xenograft nude mice were randomly divided into 2 groups (n = 5 per group). 1 in PBS (4 mg/kg) or PBS solvent control were injected to the nude mice by intravenous injection once every 2–3 days for 13 days. During the treatment period, the tumor volume and body weight of the nude mice were measured

Data set [2] is described as follows: Dynamic light scattering of nanostructures in PBS. The data set is classed as physicochemical. As for the experimental part: On the other hand, the almost neutral zeta potentials of the nanostructures of 1 and 2 validated the presence of PEG pendant in the shell of the nanostructures. The identity of gold species in the core of the nanostructures was supported by the good contrast of the core in the TEM images (Fig. 1c and S3a ^†) and energy-dispersive X-ray (EDX) spectra (Fig. 1f).
The gold content in NC1 was confirmed by EDX (Fig. 1g). […]
fetal bovine serum, ʟ-glutamine (2 mM) and penicillin/streptomycin (100 U/mL). […]
Physical measurements and instrumentation. 1H NMR spectra were recorded with a Bruker AVANCE 400 (400 MHz) or DPX-300 (300 MHz) Fourier transform NMR spectrometer at ambient temperature with tetramethylsilane (Me4Si) as an internal reference. MALDI-TOF mass spectra were recorded on a ABI4800 MALDI
TOF/TOF™ Analyzer using α-cyano-4-hydroxycinnamic acid with sodium trifluoroacetate as the matrix. Positive ion electrospray (ESI) mass spectra and ultra-performance liquid chromatography coupled quadrupole-time-of-flight mass spectrometry (UPLC-QTOF-MS) were recorded on a Waters Micromass Q-Tof
Premier quadrupole time-of-flight tandem mass spectrometer. Inductively coupled plasma mass spectra (ICP-MS) were recorded on Agilent 7500a inductively coupled plasma mass spectrometer (Agilent Technologies, CA, U.S.A.). […]

Take `COC(=O)c1ccc(C2=C3C=CC(=N3)C(c3ccccc3)=c3ccc4[n]3[Au+][n]3c(ccc32)C(c2ccccc2)=C2C=CC(=N2)C=4c2ccccc2)cc1.[Cl-]` [Compound 3, [Au(TPP–COOCH3)]^+]: the IC50 with CHEM-5 turned out to be 3.5 ± 0.03 µM; with L02, 0.2 ± 0.05 µM. Further, in data set [1] (4 mg kg^–1 i.v., 24 days, ALT, GLB, BUN, CK for 1), the “blood biochemistry (organ damage indicators)” value is “significant damage in the lung, liver and kidney of the mice”. In data set [1] (i.v., 24 days (3: 4 mg kg^–1)), the “histopathological analysis of tissues (H&E)” value is “damage in normal lung, liver and kidney tissues”.

Turning to “[Au(TPP–CONH–PEG5000–OCH3)]Cl [Compound 2]”, in data set [2], the “Intensity-averaged signals from dynamic light scattering (hydrodynamic diameter)” value was determined as 177.1 ± 81.2 nm.

With “[Au(TPP–COO–PEG5000–OCH3)]Cl [Compound 1]”, the IC50 in the data set with CHEM-5 came to 11.3 ± 0.05 µM; in the data set on L02, 3.8 ± 0.1 µM. Besides, in data set [2], the “Intensity-averaged signals from dynamic light scattering (hydrodynamic diameter)” value turned out to be 120.8 ± 7.2 nm. In addition, in data set [1] (2 or 4 mg kg^–1 i.v., 24 days), the “mouse death / body weight” value was “no mouse death or significant loss in body weight”.
